“And” between values parts separate entries of the source, which are not always exact repeats. Equal entries are not always repeated.
Columns and labels:
[1] = system: CTGF promoter occupancy in HEK293FT cells; assay: ChIP-qPCR; type: cell-based; conditions: VGLL4-overexpressing HEK293FT cells + 1,6-Hex; three biological replicates
Protocol: ChIP was carried out following a procedure previously described (An et al, [2018]). Briefly, cells were first cross-linked with freshly prepared formaldehyde (final concentration 1.42%) for 15 min, followed by addition of glycine (125 mM) for 5 min at room temperature. After a two-round wash with cold PBS, cells were scraped and collected by centrifuge. Resulting pelleted cells were resuspended in 400 μl of ChIP lysis buffer (50 mM HEPES/KOH, pH 7.5; 140 mM NaCl; 1 mM EDTA; 1% Triton X-100; 0.1% Na-deoxycholate and protease inhibitors) and subjected to sonication with Bioruptor at high power for 15 cycles (30 s on and 30 s off for each cycle) to shear the chromatin. Samples were then further diluted twice with lysis buffer and the diluted samples were centrifuged to clear the supernatants. Meanwhile, eighty microliters of each of the supernatants were directly processed to extract total DNA as whole-cell input. […] Prewashed protein A/G beads (L2118; Santa Cuz) were added into these samples, which were then incubated for another 3 h. These incubated samples were washed five times with ChIP lysis buffer and then mixed with 100 μl of 10% chelex (1421253; Bio-Rad), followed by being boiled for 10 min and centrifuged at 4 °C for 1 min. Resulting supernatants were transferred to new tubes. Subsequently, another 120 μl of MilliQ water were added to each fraction of beads pellet, and the resulting mixtures were vortexed for 10 s, and then centrifuged again to spin down the beads. The supernatants were combined as templates for follow-up qPCR analysis.

[2] = system: MYC / CYR61 promoter-enhancer interactions in HEK293FT cells; assay: Chromatin conformation capture (3C) assay; type: cell-based; conditions: VGLL4-overexpressing HEK293FT cells + 1,6-Hex; three biological replicates
Protocol: The 3C assay was performed following a protocol described previously ([…] et al, [2007]). Briefly, cells were incubated with 0.05% trypsin for 10 min before detaching. Collected cells were cross-linked with 2% formaldehyde for 10 min, followed by treatment with 0.125 M glycine for 5 min to quench the cross-linking reaction. Cells were then pelleted and incubated with a lysis buffer (10 mM Tris-HCl pH 7.5, 10 mM NaCl, 5 mM MgCl2 and 0.1 mM EGTA) at 4 °C for 15 min. Resulting pelleted nuclei were digested with Hind-III restriction enzyme (NEB) at 37 °C overnight and subsequently ligated with T4 DNA ligase (NEB) at 16 °C for 4 h. Thereafter, the samples were incubated at 65 °C overnight to de-crosslink the protein-DNA complexes and were subjected to phenol-chloroform extraction and ethanol precipitation to obtain the 3C templates. Primers flanking the Hind-III restriction sites located close to TEAD4-targeted gene CYR61 (Xie et al, [2019]) or MYC (Zanconato et al, [2015]) promoter (anchor primers) and enhancers were used to quantitively measure the promoter-enhancer interactions. The primers used are listed in Appendix Table S1.

CTGF mRNA = assay: RT-PCR of TEAD4 target genes; type: cell-based
Protocol: For RT-PCR, total RNA was isolated from cells using RNA Isolator Total RNA Extraction Reagent (Vazyme) according to the manufacturer’s instructions. The isolated RNA was reverse transcribed into cDNA using HiScpt II (Vazyme). Quantitative RT-PCR was performed using a CFX96^TM Real-Time system (Bio-Rad) and SYBR Green PCR master mix (Yeasen). The fold change in the gene expression was calculated using the comparative Ct method, and three replicates were tested for each cDNA sample. ACTB was used as an internal reference. Transcript copies of TEAD4 were determined by generating standard curves using plasmid DNA (TEAD4). Each experiment was repeated at least three times. The sequences of the primers are listed in Appendix Table S1.

GFP-TEAD4 condensates = assay: siRNA screening based on TEAD4 condensate; type: cell-based; conditions: Figure 2B source data; siRNA against the named gene; Z score based analysis
Protocol: siRNA reagents were obtained from the Dharmacon Human ON-TARGETplus siRNA Smartpool Library (Thermo) as described previously (Tang et al, [2020]). […] Lipofectamine RNAiMAX reagent (Thermo) at a volume of 0.05 μl per well was then added to the siRNA-loaded plates. Subsequently, cells expressing GFP-TEAD4 were seeded into the plate at 2000 cells per well. After subsequent transfection for 48 h, the cells were fixed with 4% PFA at room temperature for 30 min. DAPI was used to identify individual nuclei. The plates were kept at 4 °C in the dark before being analyzed using the Opera system. Twenty focus fields per well were scanned and analyzed. Scrambled siRNA was used as an internal reference on each plate.

HGC-27 cells = assay: siRNA screening based on cell growth; parameters: species or system human; conditions: Figure 2B source data; siRNA against the named gene; Z score based analysis
Protocol: For screening based on cell growth, HGC-27 cells (2000 per well) were seeded into a 96-well plate overnight. The individual siRNAs targeting 192 BioID-identified genes were then added into each well to a final concentration of 25 nM. After subsequent incubation for 48 h, the cells were analyzed using an ATP-based CellCounting-Lite^TM 2.0 reagent (Vazyme, Nanjing, China) according to the manufacturer’s instructions. The intracellular ATP contents were measured using an EnSight™ Multimode Microplate Reader (Perkin Elmer).

[3] = system: HEK293FT cells transfected with TF library; assay: Screening of TF condensates based on fluorescent puncta; type: cell-based; conditions: Figure 1B numerical data; TF library screen, one value per transcriptional factor
Protocol: TF plasmids were automatically added to black-walled 384-well plates at 80 ng per well to reach a final concentration of 1.6 μg/ml. Polyethylenimine (PEI, Sigma) was then added to the plasmid-loaded plates at 240 ng per well (4.8 μg/ml). Subsequently, HEK293FT cells were seeded into the plate at 2000 cells per well. After 60 h, cells were cultured in medium with or without glucose for 12 h, and then fixed with 4% paraformaldehyde (PFA) at room temperature for 30 min. After three washes with PBS, fixed cells were permeabilized with 0.05% Triton X-100 for 15 min. Thereafter, cells were blocked with 5% BSA for 1 h, and then incubated overnight with anti-Flag (Sigma F3165, 1:200) and anti-GAL4 (Abbkine ABP57232, 1:200) primary antibodies at 4 °C. The cells were then gently washed with PBS, followed by being incubated with Alexa Fluor Plus 488 goat anti-mouse IgG secondary antibody (Thermo A32723, 1:400) or Alexa Fluor Plus 488 goat anti-rabbit IgG secondary antibody (Thermo A32731, 1:400) for 1 h. The plates were kept at 4 °C in the dark before being analyzed using an Opera System (Perkin Elmer). Fifty random fields per well were scanned and analyzed using the Columbus Plus Image Data Storage and Analysis System (Perkin Elmer).

Row | Molecule | Z score of condensed fraction [3] | further results
1 | OCCCCCCO [1,6-Hex, 1,6-hexanediol] |  | ChIP-qPCR enrichment of CTCF on CTGF promoter [1]: 0.0726 and 0.0717 and 0.0639; ChIP-qPCR enrichment of H3K27ac on CTGF promoter [1]: 0.0982 and 0.0959 and 0.0952; ChIP-qPCR enrichment of RNA Pol II on CTGF promoter [1]: 0.1941 and 0.1778 and 0.182; 3C interaction promoter-enhance1 (MYC locus) [2]: 0.8 and 0.75 and 0.85; 3C interaction promoter-enhance 4 (MYC locus) [2]: 0.8 and 0.65 and 0.74; Effect on GLUP-induced CTGF downregulation (CTGF mRNA; GLUP-treated cells with or without 1,6-Hex, mRNA): obviously abrogated GLUP-induced downregulation of CTGF; CTGF mRNA level (CTGF mRNA; VGLL4-overexpressing HEK293FT cells + 1,6-Hex 0.25% v/v, three biological replicates): 1.31 and 0.86 and 1.18
2 | RCOR3 |  | Z score of condensed fraction (GFP-TEAD4 condensates): 1.432; Z score of cell growth (HGC-27 cells): 0.05778
3 | ZNF500 | -0.7824 | 
4 | MYT1L | -0.407 | 
5 | HOXB13 | -0.5432 | 
6 | RHOA | 2.893 | 
7 | TFAP2D | -0.6052 | 
8 | ZNF10 | -0.8346 | 
9 | HIVEP2 | -0.8032 | 
10 | ZNF132 | -0.5777 | 
11 | ZNF829 | 0.6314 | 
12 | HOXC5 | -0.4333 | 
13 | PRDM2 | -1.186 | 
14 | ZNF34 | -0.5261 | 
15 | PBRM1 | -1.101 | 
16 | CHD6 | -1.082 | 
17 | ZNF432 | -0.5974 | 
18 | FEV | -0.8157 | 
19 | ATF4/CREB2 | 2.625 | 
20 | HOXA5 | -1.091 | 
21 | GFI1 | -0.2635 | 
22 | ZNF530 | -0.1863 | 
23 | TFAP2E | 1.779 | 
24 | HOXA10 | -0.1146 | 
25 | TGIF2 | 0.8605 | 

Row | Molecule | Z score of condensed fraction [3] | further results
26 | KLF7 | 1.062 | 
27 | BHLHE22 | 1.286 | 
28 | RAX2 | 0.03236 | 
29 | PAX9 | -0.6994 | 
30 | VSX1 | 0.9653 | 
31 | MAX | 1.089 | 
32 | HOXA1 | -0.1685 | 
33 | TIGD4 | -0.7471 | 
34 | CTBP2 | 1.5 | 
35 | DLX3 | -0.9246 | 
36 | NFIB | 0.509 | 
37 | NEUROD6 | 1.486 | 
38 | GSC2 | -0.9708 | 
39 | ZFP1 | -1.01 | 
40 | ZNF572 | -0.6768 | 
41 | SP1 | -0.5886 | 
42 | MIXL1 | -0.6564 | 
43 | ZFP263 | 2.5993 | 
44 | PHF19 | -0.6582 | 
45 | GBX1 | 1.521 | 
46 | ZKSCAN8 | -0.06563 | 
47 | ZNF433 | -0.2089 | 
48 | ZNF490 | -0.9623 | 
49 | ZNF302 | -1.141 | 
50 | NFIA | 0.5032 | 

Row | Molecule | Z score of condensed fraction [3] | further results
51 | ZNF643 | 2.053 | 
52 | HOXB5 | -0.4916 | 
53 | GFI1B | -0.772 | 
54 | HOXD1 | -0.8333 | 
55 | NKX3-1 | -0.7603 | 
56 | KLF16 | -0.8935 | 
57 | ZNF77 | -1.086 | 
58 | SP8 | -1.149 | 
59 | HOXD11 | -0.6245 | 
60 | ZNF587 | 0.9024 | 
61 | ZNF621 | -0.6157 | 
62 | PRRX1 | -0.08333 | 
63 | HOXC4 | 0.8193 | 
64 | KDM5D | 0.3583 | 
65 | ZNF92 | 0.2513 | 
66 | SUPT3H | 2.5076 | 
67 | NR2E1/TLX | -0.5566 | 
68 | KDM5C | 0.549 | 
69 | PDX1 | -0.1162 | 
70 | SOX15 | 0.259 | 
71 | NPM1 | 0.01602 | 
72 | ZNF22 | -0.4323 | 
73 | ZNF562 | 1.118 | 
